The values below come from PubChem BioAssay AID179 (DTP/NCI, 2004).

The test deals with CEM cells HIV-1 protection, formazan growth assay. As to the kind of experiment: NCI AIDS Antiviral Assay. The following applies: for IC50: measured here: growth of uninfected CEM cells. The method, boiled down: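 Human CEM cells, uninfected and HIV-1-infected, exposed to five drug concentrations; growth measured by soluble formazan assay and scored as percent protection from infection, with protecting compounds retested.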

SMILES strings stand for the structures. Calls of active or inactive are those of the source.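 Rule for the calls: active = compounds giving half or more protection of infected cells from virus-caused growth loss, again on retest; inactive = the rest.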

`CN1C/C(=C\c2ccc(Cl)cc2)C(=O)/C(=C/c2ccc(Cl)cc2)C1`: the EC50 was above 200 µM and the IC50 came out at 0.417 µM. In the case of `O=C1C=C(C(O)CCO)C(=O)c2c(O)ccc(O)c21` (centres undefined), the outcome was inactive. Consider `CCOC(=O)C1(Cc2c[nH]c3ccccc23)C(O)CCCN1C(C)=O` (centres undefined), for which the EC50 is above 200 µM and the IC50 stood at 155 µM. For `C=CCCCN1C(=O)CCC1=O`, the outcome was inactive. Take `COc1ccc(C(=O)/C=C/c2ccc(OCC(=O)N3CCN(c4ccccc4)CC3)cc2)cc1OC`: the outcome was inactive. Take `CC/C(=C(\C#N)c1ccc(F)cc1)c1ccc(OCCN(CC)CC)cc1`: the EC50 is above 200 µM and the IC50 is 2.51 µM. For the compound `COC(=O)c1cncc2c1CC1C3(C(=O)OC)C=NC(C4C(CO)=CCC43)C21C` (centres undefined), the outcome was inactive. `Fc1ccc2nncc(SCc3ccc(Cl)cc3)c2c1`: the EC50 is above 87.1 µM and the IC50 was above 87.1 µM. As for `CC(C)=CCC/C(C)=C/CC12OC(C)(C)C(Cl)CC1(Cl)C(=O)c1c(O)cc(O)cc1C2=O` (centres undefined), the EC50 is above 37.2 µM and the IC50 is 11 µM.

Take `O=C1C(SCCO)=C(SCCO)C(=O)c2[nH]cnc21`: the EC50 was above 437 µM and the IC50 was found to be 42.7 µM. For the compound `COc1cc(C)c2c(c1C)OC(=O)c1c(C)c(Cl)c(O)c(C=O)c1O2`, the EC50 was above 49 µM and the IC50 is above 49 µM. In the case of `Brc1ccccc1/C=C\C1(c2ccccc2)OCCO1`, the EC50 was above 200 µM and the IC50 is 4.37 µM.

As to `CCCCCCc1ccc(C(=O)NO)cc1`, the EC50 is above 200 µM and the concentration for half-maximal inhibition (IC50) amounted to 91.2 µM. Take `C=C=C(CCC(=O)c1ccccc1)S(=O)(=O)c1ccccc1`: the EC50 was above 200 µM and the IC50 is 11 µM.

As to `CCOP(=O)(OCC)C(C(=O)OC)C(=O)C(=O)Nc1ccc(Cl)cc1Cl` (centres undefined), the EC50 was above 61.7 µM and the IC50 was above 61.7 µM. `Cc1cn(C2CC(N)C(CN)O2)c(=O)[nH]c1=O` (centres undefined): the EC50 was above 200 µM and the IC50 is above 200 µM. Turning to `CC1(C)CC(=O)C(C=NC(=S)c2ccccc2)=C(O)C1`, the EC50 was above 200 µM and the IC50 was above 200 µM. Turning to `CN(CCO)CNC(=O)C1=C(O)C2(O)C(=O)C3=C(O)c4c(O)cccc4C(C)(O)C3CC2C(N(C)C)C1=O` (centres undefined), the EC50 was above 178 µM and the 50% inhibitory concentration (IC50) was above 178 µM. For the compound `CCCCCc1nnc2n1N=C(c1ccc(Cl)cc1)CS2`, the EC50 was above 200 µM and the IC50 is above 200 µM. For `COc1cc2c(nn1)CCCC2`, the result was inactive. Consider `O=C1[C@@H]2C(c3ccc(Cl)cc3Cl)=NO[C@@H]2C(=O)N1c1ccc(Cc2ccc(N3C(=O)[C@H]4C(c5ccc(Cl)cc5Cl)=NO[C@H]4C3=O)cc2)cc1`, for which the EC50 is above 7.08 µM and the IC50 is above 7.08 µM. As to `O=[N+]([O-])c1cccc2nccc(NCCN3CCOCC3)c12`, the EC50 is above 200 µM and the IC50 is 10 µM. On to `O=c1nc(NC(c2ccccc2)(c2ccccc2)c2ccccc2)ccn1CCCl`, for which the result was inactive.

As to `NC(=O)NNC(O)(C(F)(F)F)C(F)(F)F`, the EC50 is above 200 µM and the IC50 was above 200 µM. As for `COc1ccc(Nc2nc3c(s2)c(C)c(O)c2ccccc23)cc1`, the EC50 was above 2.88 µM and the IC50 amounted to 0.851 µM.

Take `CC(=C\c1ccccc1)/C=C1\C(=O)NC(=S)N1C=C1C(=O)NC(=O)NC1=O`: the EC50 is above 200 µM and the IC50 is above 200 µM. As to `COc1ccc(C(CC(=O)O)c2ccccc2)cc1` (centres undefined), the EC50 is above 708 µM and the IC50 was 501 µM. As to `CN1C(=S)Nc2ncn(C)c2S1(=O)=O`, the EC50 is above 81.3 µM and the IC50 is above 81.3 µM.

Consider `OC[C@H](O)[C@@H](OCc1ccccc1)[C@H](NCc1ccccc1)c1cccs1`, for which the EC50 is above 200 µM and the half-maximal inhibitory concentration (IC50) was 97.7 µM. Consider `CC(c1ccc(Br)cc1)C(C(=O)O)C(=O)O` (centres undefined), for which the result was inactive. Turning to `CNS(=O)(=O)NNS(=O)(=O)c1ccc(F)cc1`, the EC50 is above 631 µM and the 50% inhibitory concentration (IC50) amounted to 214 µM. As to `CCOC(=O)C1=CC(C)(C(=O)OCC)Nc2c(nc(N)[nH]c2=O)N1` (centres undefined), the EC50 is 138 µM and the IC50 is above 200 µM. With `Cn1cc(NC(=O)c2cc(NC(=O)c3cc(NC(=O)/C=C/C(=O)Nc4cn(C)c(C(=O)Nc5cn(C)c(C(=O)Nc6cn(C)c(C(=O)NCCC(=N)N)n6)n5)n4)cn3C)cn2C)cc1C(=O)NCCC(=N)N`, the EC50 is above 7.76 µM and the 50% inhibitory concentration (IC50) amounted to 1.45 µM. In the case of `CCOC(OC1=CCCC1)C(C)[Se]c1ccccc1` (centres undefined), the EC50 is above 22.4 µM and the IC50 is above 22.4 µM. Regarding `CCOC(=O)/C(O)=C/c1cc(=O)n(C)c2ccccc12`, the EC50 was above 200 µM and the IC50 was above 200 µM. On to `CC(C)CC(NC(=O)OCc1ccccc1)C(=O)NCCCCC(N)C(=O)NC(CCCCNC(=O)C(CC(C)C)NC(=O)OCc1ccccc1)C(=O)NC(CCCCNC(=O)C(CC(C)C)NC(=O)OCc1ccccc1)C(=O)NC(CCCCNC(=O)C(CC(C)C)NC(=O)OCc1ccccc1)C(=O)NC(CCCCNC(=O)C(CC(C)C)NC(=O)OCc1ccccc1)C(=O)NC(CCCCNC(=O)C(CC(C)C)NC(=O)OCc1ccccc1)C(=O)O` (centres undefined), for which the EC50 was above 100 µM and the IC50 was above 100 µM. For `Nc1ncnc2c1ncn2[C@H]1CC[C@]2(CO)C[C@H]12`, the EC50 was above 25.1 µM and the IC50 is above 25.1 µM. Take `O=C(O)CSCCOCCSCC(=O)O`: the EC50 was above 708 µM and the IC50 was above 708 µM. Turning to `CC(=O)OC1(C)C=Cc2ccccc2/C1=N/S(=O)(=O)c1ccccc1` (centres undefined), the EC50 is above 200 µM and the IC50 was 31.6 µM.

For the compound `COc1cccc2c(NCCCN(C)C)c3c([N+](=O)[O-])ccc(OC)c3nc12`, the EC50 is above 2 µM and the IC50 stood at 0.257 µM. On to `CCc1c(Cc2ccccc2)n(COCCC[Se]c2ccccc2)c(=O)[nH]c1=O`, for which the EC50 was 2.82 µM and the IC50 was 18.2 µM. In the case of `C=C=C(CC(CC=C(C)C)(C(C)=O)C(=O)OC(C)(C)C)S(=O)(=O)c1ccccc1` (centres undefined), the EC50 was above 32.4 µM and the IC50 was determined as 6.17 µM. As to `NC1Cc2ccccc2OC1=O` (centres undefined), the EC50 is above 200 µM and the IC50 was above 200 µM. Take `CC(C)C1CC=CC2[C@H]3C(C)(CC[C@]12CBr)C(Br)CC[C@@]3(C)O` (some centres undefined): the result was inactive. For `CN1C/C(=C\C=C\c2ccccc2)C(=O)/C(=C/C=C/c2ccccc2)C1`, the EC50 was above 7.24 µM and the IC50 was above 7.24 µM.

Consider `COc1cccc(OC)c1NC1=NCCO1`, for which the EC50 was above 200 µM and the IC50 is 120 µM. Consider `COC(=O)[C@@]12CN(C)[C@@H](C(C)(C)C)N1C(=O)OC2c1ccccc1` (some centres undefined), for which the EC50 was above 200 µM and the IC50 was above 200 µM.

As for `CC1=NNC(=S)NCCCN2CCN(CCCNC(=S)NN=C(C)C=NNC(=S)NCCCN3CCN(CCCNC(=S)NN=C1)CC3)CC2`, the EC50 is above 123 µM and the IC50 is above 123 µM. On to `O=C(CCc1ccc(O)c(O)c1)NCCc1cc(O)cc(O)c1`, for which the result was inactive. For the compound `O=C1c2cc3c(cc2CC12Cc1cc4c(cc1C2=O)CCC4)CCC3`, the EC50 is 158 µM and the IC50 was above 200 µM. Take `CC(=O)Nc1ccc(C2SCc3nc4ccccc4n32)cc1` (centres undefined): the EC50 was above 200 µM and the IC50 is above 200 µM. As to `COc1ccc(N=NC(=O)NC(CC(C)C)C(=O)NC(C)C(=O)O)cc1` (centres undefined), the EC50 is above 200 µM and the IC50 amounted to 2.82 µM. For `O=S1(=O)C[C@@H](O)[C@H](O)CS1`, the EC50 is 16.2 µM and the IC50 came out at 166 µM. Take `COc1ccc(CSc2ccccc2Cn2cccc2)cc1OC`: the result was inactive. As to `CC1(C)CCC[C@@]2(C)C1CC[C@H]1CC(O)C3(C)CCC12C3` (some centres undefined), the EC50 was above 12.3 µM and the IC50 is above 12.3 µM. `O=c1c2ccccc2[nH]c2c(Cl)cc(Cl)c(N3CCCCC3)c12`: the EC50 is above 200 µM and the IC50 stood at 12.9 µM. With `N#CC1=C2SCCN2C(=O)C(C#N)C12CCCCC2` (centres undefined), the EC50 was above 200 µM and the IC50 was above 200 µM. In the case of `COC(=O)CCCC1(CCCC(=O)OC)CCCCCCCCC(CCCC(=O)OC)(CCCC(=O)OC)C(=O)C1=O`, the EC50 is above 200 µM and the IC50 turned out to be 35.5 µM.

`COc1ccc(N2C(=O)C3c4[nH]c5cc(C)ccc5c4C4CCC(C(C)(C)C)CC4C3C2=O)cc1` (centres undefined): the EC50 was above 200 µM and the IC50 was 105 µM. Taken in the same sequence, the figures for `O=c1[nH]c(=S)[nH]c2nc[nH]c12` were above 200 µM and above 200 µM. As for `O=S1(=O)CC2C(C1)C1(c3ccccc3)OC2(c2ccccc2)c2ccccc21` (centres undefined), the result was inactive. On to `C=CCSCC1Nc2cc(Cl)c(S(N)(=O)=O)cc2S(=O)(=O)N1C` (centres undefined), for which the EC50 was above 234 µM and the IC50 turned out to be 91.2 µM. Taken in the same sequence, the figures for `CC(=O)Nc1ccc(S(=O)(=O)NCCSSCCNS(=O)(=O)c2ccc(NC(C)=O)cc2)cc1` were above 200 µM and above 200 µM. On to `O=C1c2ccccc2CCC1(Br)C(Br)c1ccccc1` (centres undefined), for which the EC50 is above 200 µM and the IC50 was 5.37 µM.

Consider `CCC12OC(COc3ccccc3)CN1CCS2` (centres undefined), for which the EC50 is above 257 µM and the IC50 turned out to be 132 µM. As to `Cc1cc(Cl)ccc1NC(=O)CC1SC(=Nc2ccccc2Cl)NC1=O` (centres undefined), the EC50 is above 89.1 µM and the IC50 came out at 43.7 µM. With `CCOc1ccc(NC(=O)/C(=N\N)C(C(=O)OC)c2nc3ccc(Cl)cc3[nH]c2=O)cc1` (centres undefined), the EC50 is above 38.9 µM and the IC50 is above 38.9 µM.

For `Cc1[se]c(N)nc1-c1ccccc1`, the result was inactive. As to `CC(=O)OC(/C=C1/C=CC(=O)O1)COC(=O)c1ccccc1` (centres undefined), the EC50 is above 309 µM and the IC50 amounted to 5.89 µM. `NC(Cc1ccccc1)C(=O)NC(Cc1ccccc1)NC(=O)C(Cc1c[nH]c2ccccc12)C(=O)O` (centres undefined): the result was inactive. On to `CCN(CCN1C(=O)C2CCCCC2C1=O)c1ccc(N=O)c(C)c1` (centres undefined), for which the EC50 is above 200 µM and the IC50 was 1.78 µM.

One may read the EC50 as the concentration giving half of the maximal effect. A word on the IC50: it is the midpoint of a concentration-inhibition curve.
